Usually IC50 stands for the concentration that gives 50% inhibition. A low value points to higher potency.

Common to all, as to assay type: biochemical
One assay addresses BRD4-1 (Homo sapiens (Human), UniProt O60885). Briefly: BRD4 region 1 (BRD4-1) inhibition.
A further assay concerns the target PI3Kα (Homo sapiens (Human), UniProt P42336). Briefly: PI3K alpha isoform inhibition.
Another assay deals with BRD4-2 (Homo sapiens (Human), UniProt O60885). Briefly: BRD4 region 2 (BRD4-2) inhibition.
The target of the next assay is PI3Kδ (Homo sapiens (Human), UniProt O00329). The assay can be described thus: PI3K delta isoform inhibition. The text has this:
Inhibitory activity can be determined routinely using known methods and also front commercial vendors offering this service for kinases and bromodomain proteins. […] In vivo, PI3K inhibition can be determined from target tissue biopsies by standard tissue processing to disrupt cells and then performing Western Blot analysis to determine the presence or absence of pAKT (substrate of PI3K) relative to a control sample. The activity of a compound of the invention as an inhibitor of a bromodomain-containing protein, such as a BET protein, such as BRD2, BRD3, BRD4, and/or BRDT, or an isoform or mutant thereof may be determined in vitro, in vivo, or in a cell line. In vitro assays include assays that determine inhibition of bromodomain-containing proteins. Alternatively, inhibitor binding may be determined by running a competition experiment where a provided compound is incubated with a bromodomain-containing protein, such as a BET protein bound to known ligands, labeled or unlabeled. For example, bromodomain inhibition can be determined in vitro using Alpha Screen Technology (http://www.reactionbiology.com/webapps/site/NewsPDFs/Bromodomain%20Assay%20Platform%20for%20Drug%/20Screening%20and%20Discovery.pdf). In vivo bromodomain inhibition can be determined indirectly by evaluating the amount of protect present of proteins whose genes' transcription is influenced or controlled by the bromodomain protein, for example, the MYCN protein transcription is controlled by BRD4 (J. E. Delmore et al., Cell 2011, 146, 904-917; A. Puissant, Cancer Discov. 2013, 3, 308-323). Bromodomain inhibition may also be predicted by in silico modeling as described below in the Examples.
Several TP Scaffold compounds (structures shown in FIG. 2 and Table 3) were tested for inhibition activity against isoforms of PI3K (alpha, beta, gamma, and delta isoforms) and the bromodomain protein BRD4 at regions 1 (BRD4-1) and 2 (BRD4-2).

A further assay addresses PI3Kγ (Homo sapiens (Human), UniProt P48736). Briefly: PI3K gamma isoform inhibition.

Sequence of PI3Kα (P42336 whole entry, canonical isoform): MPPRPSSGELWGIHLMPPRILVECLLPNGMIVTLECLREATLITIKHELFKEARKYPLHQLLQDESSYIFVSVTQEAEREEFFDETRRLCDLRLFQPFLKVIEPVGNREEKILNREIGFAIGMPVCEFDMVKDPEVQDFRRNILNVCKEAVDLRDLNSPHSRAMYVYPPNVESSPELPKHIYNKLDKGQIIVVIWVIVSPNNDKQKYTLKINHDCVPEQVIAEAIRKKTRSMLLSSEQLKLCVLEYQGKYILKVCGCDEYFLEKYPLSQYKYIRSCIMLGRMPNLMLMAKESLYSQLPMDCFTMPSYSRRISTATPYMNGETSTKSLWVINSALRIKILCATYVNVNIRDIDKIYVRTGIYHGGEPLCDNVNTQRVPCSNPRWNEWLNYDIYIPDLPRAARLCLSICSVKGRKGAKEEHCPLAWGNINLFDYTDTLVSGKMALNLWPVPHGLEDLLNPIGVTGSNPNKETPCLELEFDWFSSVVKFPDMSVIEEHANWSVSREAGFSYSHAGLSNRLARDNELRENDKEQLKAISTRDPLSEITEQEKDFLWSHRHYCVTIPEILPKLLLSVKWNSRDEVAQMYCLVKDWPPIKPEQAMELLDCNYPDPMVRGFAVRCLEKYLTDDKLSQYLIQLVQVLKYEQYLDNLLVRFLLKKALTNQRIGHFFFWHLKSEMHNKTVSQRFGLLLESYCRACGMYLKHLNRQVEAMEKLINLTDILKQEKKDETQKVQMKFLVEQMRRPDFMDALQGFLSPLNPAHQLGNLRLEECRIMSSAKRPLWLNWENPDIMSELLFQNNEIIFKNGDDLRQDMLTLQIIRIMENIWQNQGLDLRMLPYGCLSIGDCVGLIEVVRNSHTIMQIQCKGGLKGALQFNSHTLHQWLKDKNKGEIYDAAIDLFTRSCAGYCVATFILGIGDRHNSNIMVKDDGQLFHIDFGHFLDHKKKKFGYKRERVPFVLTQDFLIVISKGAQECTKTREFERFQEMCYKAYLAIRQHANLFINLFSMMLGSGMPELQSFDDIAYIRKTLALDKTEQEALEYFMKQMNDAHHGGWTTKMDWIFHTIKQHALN
Sequence of PI3Kα (P27986 whole entry partner, canonical isoform): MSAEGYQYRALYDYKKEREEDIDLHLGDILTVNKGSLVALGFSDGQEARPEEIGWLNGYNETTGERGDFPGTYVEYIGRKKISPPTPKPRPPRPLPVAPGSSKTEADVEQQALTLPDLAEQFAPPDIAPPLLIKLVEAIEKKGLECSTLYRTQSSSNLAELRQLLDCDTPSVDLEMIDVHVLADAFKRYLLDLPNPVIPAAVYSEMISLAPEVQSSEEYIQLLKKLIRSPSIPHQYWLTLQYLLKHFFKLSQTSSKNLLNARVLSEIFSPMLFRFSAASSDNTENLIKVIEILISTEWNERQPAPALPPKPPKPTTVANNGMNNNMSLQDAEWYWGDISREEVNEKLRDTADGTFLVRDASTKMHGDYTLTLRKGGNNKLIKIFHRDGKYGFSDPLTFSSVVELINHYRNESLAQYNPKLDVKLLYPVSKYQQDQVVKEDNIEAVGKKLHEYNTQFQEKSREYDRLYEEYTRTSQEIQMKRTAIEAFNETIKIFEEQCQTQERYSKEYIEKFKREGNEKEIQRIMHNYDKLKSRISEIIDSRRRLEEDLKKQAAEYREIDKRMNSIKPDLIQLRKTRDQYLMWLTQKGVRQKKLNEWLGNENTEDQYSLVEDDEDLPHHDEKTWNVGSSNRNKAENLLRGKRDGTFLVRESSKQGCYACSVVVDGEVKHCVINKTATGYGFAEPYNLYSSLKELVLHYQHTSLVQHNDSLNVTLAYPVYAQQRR
Sequence of PI3Kγ (P48736 whole entry, canonical isoform): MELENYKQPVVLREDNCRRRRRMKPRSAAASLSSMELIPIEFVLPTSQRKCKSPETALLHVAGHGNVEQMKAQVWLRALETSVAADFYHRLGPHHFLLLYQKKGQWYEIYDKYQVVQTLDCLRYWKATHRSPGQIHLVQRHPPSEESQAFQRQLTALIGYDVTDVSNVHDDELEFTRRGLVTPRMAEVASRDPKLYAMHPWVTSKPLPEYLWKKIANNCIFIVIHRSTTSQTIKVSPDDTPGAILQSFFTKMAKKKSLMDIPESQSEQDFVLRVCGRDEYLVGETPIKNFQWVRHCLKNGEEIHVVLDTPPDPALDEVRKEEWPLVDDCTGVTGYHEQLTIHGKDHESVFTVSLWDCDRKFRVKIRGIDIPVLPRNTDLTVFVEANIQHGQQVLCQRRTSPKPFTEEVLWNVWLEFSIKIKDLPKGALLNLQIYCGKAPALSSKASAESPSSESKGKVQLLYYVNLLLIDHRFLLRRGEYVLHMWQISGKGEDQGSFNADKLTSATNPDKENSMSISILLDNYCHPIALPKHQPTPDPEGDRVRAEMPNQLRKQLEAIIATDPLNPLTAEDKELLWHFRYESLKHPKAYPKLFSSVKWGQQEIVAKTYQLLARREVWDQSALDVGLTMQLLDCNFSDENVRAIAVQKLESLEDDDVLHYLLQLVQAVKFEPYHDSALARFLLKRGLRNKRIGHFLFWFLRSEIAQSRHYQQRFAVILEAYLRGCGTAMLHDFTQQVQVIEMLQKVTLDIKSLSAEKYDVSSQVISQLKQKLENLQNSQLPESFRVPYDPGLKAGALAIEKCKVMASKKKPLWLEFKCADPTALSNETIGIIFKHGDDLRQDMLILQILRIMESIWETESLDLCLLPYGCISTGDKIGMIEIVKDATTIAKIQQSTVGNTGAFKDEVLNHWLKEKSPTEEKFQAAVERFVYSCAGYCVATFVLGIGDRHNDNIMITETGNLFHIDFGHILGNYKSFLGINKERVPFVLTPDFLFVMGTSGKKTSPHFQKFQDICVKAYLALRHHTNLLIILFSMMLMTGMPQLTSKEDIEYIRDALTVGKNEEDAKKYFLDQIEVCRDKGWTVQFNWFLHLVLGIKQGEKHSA
Sequence of PI3Kδ (O00329 whole entry, canonical isoform): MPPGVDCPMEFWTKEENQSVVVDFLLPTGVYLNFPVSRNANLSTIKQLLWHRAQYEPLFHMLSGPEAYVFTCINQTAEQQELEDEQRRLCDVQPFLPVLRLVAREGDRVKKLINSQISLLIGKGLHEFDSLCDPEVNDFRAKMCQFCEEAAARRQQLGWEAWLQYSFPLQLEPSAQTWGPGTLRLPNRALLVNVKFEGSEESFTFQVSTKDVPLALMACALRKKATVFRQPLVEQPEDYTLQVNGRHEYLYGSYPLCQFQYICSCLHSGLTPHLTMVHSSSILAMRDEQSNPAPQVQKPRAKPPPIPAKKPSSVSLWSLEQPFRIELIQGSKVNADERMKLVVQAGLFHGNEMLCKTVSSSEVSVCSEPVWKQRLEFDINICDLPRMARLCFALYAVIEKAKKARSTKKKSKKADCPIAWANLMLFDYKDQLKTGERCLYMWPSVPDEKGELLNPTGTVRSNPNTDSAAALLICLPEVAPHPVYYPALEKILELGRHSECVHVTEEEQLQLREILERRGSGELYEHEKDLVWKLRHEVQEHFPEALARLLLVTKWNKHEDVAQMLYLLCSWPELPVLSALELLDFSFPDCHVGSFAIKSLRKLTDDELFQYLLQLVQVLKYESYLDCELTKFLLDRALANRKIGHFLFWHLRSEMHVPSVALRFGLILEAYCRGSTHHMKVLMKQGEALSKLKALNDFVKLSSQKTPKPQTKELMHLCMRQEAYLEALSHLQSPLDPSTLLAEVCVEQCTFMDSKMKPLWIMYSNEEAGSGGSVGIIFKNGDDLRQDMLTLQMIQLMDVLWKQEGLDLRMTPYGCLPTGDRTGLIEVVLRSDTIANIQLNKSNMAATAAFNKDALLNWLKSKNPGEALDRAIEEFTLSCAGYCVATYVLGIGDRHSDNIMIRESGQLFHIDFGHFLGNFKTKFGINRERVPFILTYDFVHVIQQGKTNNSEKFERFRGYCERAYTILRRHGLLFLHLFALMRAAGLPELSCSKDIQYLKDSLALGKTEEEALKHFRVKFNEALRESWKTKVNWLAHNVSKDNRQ
Sequence of PI3Kδ (P27986 whole entry partner, canonical isoform): as the sequence (P27986 whole entry partner, canonical isoform) above

For the compound `O=C(Nc1ccc(-c2csc3c(=O)cc(N4CCOCC4)oc23)cc1)c1ccc(F)c(F)c1Nc1ccc(I)cc1F` [Cmpd 121], the values for the IC50 at BRD4-1, against PI3Kα and against BRD4-2 were 0.255 µM, less than 10 µM and 2.31 µM, respectively.
Consider `CC(C)(C)c1cc(NC(=O)Nc2cccc(-c3csc4c(=O)cc(N5CCOCC5)oc34)c2)no1` [Cmpd 122, 1-(5-tert-Butyl-isoxazol-3-yl)-3-[3-(5-morpholin-4-yl-7-oxo-7H-thieno[3,2-b]pyran-3-yl)-phenyl]-urea], for which the IC50 on PI3Kδ worked out at 1.35 µM; at BRD4-1, 2.57 µM; against PI3Kα, 0.95 µM; on BRD4-2, 4.88 µM; against PI3Kγ, 8.65 µM.
With `O=c1cc(N2CCSCC2)oc2c(-c3ccc4c(c3)OCCO4)csc12` [Cmpd 124, 3-(2,3-Dihydrobenzo[b][1,4]dioxan-6-yl)-5-thiomorpholino-7H-thieno[3,2-b]pyran-7-one], the IC50 on PI3Kδ came to 0.48 µM; on BRD4-1, 0.519 µM; at PI3Kα, 1.58 µM; on BRD4-2, 2.79 µM; against PI3Kγ it was 4.63 µM.
`O=c1cc(N2CCOCC2)oc2c(Br)csc12` [Cmpd 126, 3-Bromo-5-morpholin-4-yl-thieno[3,2-b]pyran-7-one]: the IC50 is 1.48 µM on PI3Kδ, greater than 50 µM against BRD4-1, greater than 50 µM at BRD4-2 and 2.2 µM on PI3Kγ.
For the compound `O=C(Nc1cccc(-c2csc3c(=O)cc(N4CCOCC4)oc23)c1)Nc1cccc(C(F)(F)F)c1` [Cmpd 136], the IC50 at BRD4-1 was 6.15 µM; against BRD4-2, 1.26 µM.
On to `Nc1cccc(-c2csc3c(=O)cc(N4CCOCC4)oc23)c1` [Cmpd 11, 3-(3-Amino-phenyl)-5-morpholin-4-yl-thieno[3,2-b]pyran-7-one], for which the IC50 is 9.81 µM against PI3Kδ, 0.843 µM at BRD4-1, 1.74 µM against BRD4-2 and 6.3 µM at PI3Kγ.
Take `Cc1cccc(NC(=O)Nc2cccc(-c3csc4c(=O)cc(N5CCOCC5)oc34)c2)c1` [Cmpd 135, 5-Morpholino-3-{m-[3-(m-tolyl)ureido]phenyl}-4-oxa-1-thia-7-indenone]: the 50% inhibitory concentration (IC50) was found to be 0.646 µM against BRD4-1 and 1.27 µM against BRD4-2.
For the compound `O=c1cc(N2CCOCC2)oc2c(C#Cc3ccccc3)csc12` [Cmpd 128], the half-inhibitory concentration (IC50) against BRD4-1 came to 4 µM; against BRD4-2, 10.7 µM.
The matching figures for `CN(C)C(=O)Nc1cccc(-c2csc3c(=O)cc(N4CCOCC4)oc23)c1` [Cmpd 134, 3-[m-(3-Dimethylureido)phenyl]-5-morpholino-4-oxa-1-thia-7-indenone]: 0.662 µM and 1.85 µM.
As for `Cc1ccc(C)c(NC(=O)Nc2cccc(-c3csc4c(=O)cc(N5CCOCC5)oc34)c2)c1` [Cmpd 137, 5-Morpholino-3-{m-[3-(2,5-xylyl)ureido]phenyl}-4-oxa-1-thia-7-indenone], the results for the concentration for half-maximal inhibition (IC50) against BRD4-1 and on BRD4-2 were 0.748 µM and 1.26 µM, respectively.
Regarding `Cn1ncc2ccc(-c3csc4c(=O)cc(N5CCOCC5)oc34)cc21` [Cmpd 130, 3-(1-Methyl-1H-indazol-6-yl)-5-morpholino-4-oxa-1-thia-7-Indenone], the half-maximal inhibitory concentration (IC50) turned out to be 0.349 µM on BRD4-1 and 0.695 µM on BRD4-2.
Consider `O=c1cc(N2CCOCC2)oc2c(-c3ccn[nH]3)csc12` [Cmpd 129, 5-Morpholino-3-(2H-pyrazol-3-yl)-4-oxa-1-thia-7-Indenone], for which the IC50 against BRD4-1 came out at 2.23 µM; against BRD4-2, 9.41 µM.
For the compound `CNC(=O)Nc1cccc(-c2csc3c(=O)cc(N4CCOCC4)oc23)c1` [Cmpd 133, 3-[m-(3-Methylureido)phenyl]-5-morpholino-4-oxa-1-thia-7-indenone], the IC50 on BRD4-1 turned out to be 0.558 µM; on BRD4-2, 1.12 µM.
On the same counts, the results for `Cc1n[nH]c2cc(-c3csc4c(=O)cc(N5CCOCC5)oc34)ccc12` [Cmpd 131, 3-(3-Methyl-1H-indazol-6-yl)-5-morpholino-4-oxa-1-thia-7-Indenone] are 0.231 µM and 0.446 µM.
